Results published in ChEMBL document CHEMBL6078675, “Discovery of Ureido-Containing Alteropeptilides and Intramolecular Cyclized Alteramides in Pseudoalteromonas flavipulchra S16 by Promoter Engineering of Cryptic Biosynthetic Gene Clusters” (J Nat Prod, 2024).
Activity calls are given as the source filed them. The rule behind the calls is not given here. Numbered stars: 1 amine (or outer) side, 2 acyl side, 3 side chain; on linkers, the order of the positions; unused ones are H or OH. Peptide text beside a SMILES is read from it. Trp(6-Br) = N[C@@H](Cc1c[nH]c2cc(Br)ccc12)C(=O)O; CO = O=C([*:1])[*:2]

Assays:
K562 = experiment: Cytotoxicity against human K562 cells assessed as inhibition of cell proliferation at 20 uM incubated for 24 hrs by CCK8 assay; format: functional, cell-based
MCF7 = experiment: Cytotoxicity against human MCF7 cells assessed as inhibition of cell proliferation at 20 uM incubated for 24 hrs by CCK8 assay; format: functional, cell-based
786-0 = experiment: Cytotoxicity against human 786-0 cells assessed as inhibition of cell proliferation at 20 uM incubated for 24 hrs by CCK8 assay; format: functional, cell-based
A673 = experiment: Cytotoxicity against human A673 cells assessed as inhibition of cell proliferation at 20 uM incubated for 24 hrs by CCK8 assay; format: functional, cell-based
A-375 = experiment: Cytotoxicity against human A-375 cells assessed as inhibition of cell proliferation at 20 uM incubated for 24 hrs by CCK8 assay; format: functional, cell-based
RAW264.7 [1] = experiment: Cytotoxicity against mouse RAW264.7 cells assessed as inhibition of cell proliferation at 20 uM incubated for 24 hrs by CCK8 assay; format: functional, cell-based
L02 = experiment: Cytotoxicity against human L02 cells assessed as inhibition of cell proliferation at 20 uM incubated for 24 hrs by CCK8 assay; format: toxicity, cell-based; settings: l02, 24 h
SF-126 = experiment: Cytotoxicity against human SF-126 cells assessed as inhibition of cell proliferation at 20 uM incubated for 24 hrs by CCK8 assay; format: functional, cell-based
Staphylococcus aureus = experiment: Antibacterial activity against Staphylococcus aureus ATCC 29213 at 1 mM at 20 uM incubated for 16 hrs by disk diffusion method; format: functional, organism-based
5637 = experiment: Cytotoxicity against human 5637 cells assessed as inhibition of cell proliferation at 20 uM incubated for 24 hrs by CCK8 assay; format: functional, cell-based
Bacillus subtilis = experiment: Antibacterial activity against Bacillus subtilis ATCC 6633 at 1 mM at 20 uM incubated for 16 hrs by disk diffusion method; format: functional, organism-based
HOS = experiment: Cytotoxicity against human HOS cells assessed as inhibition of cell proliferation at 20 uM incubated for 24 hrs by CCK8 assay; format: functional, cell-based
DU-145 = experiment: Cytotoxicity against human DU-145 cells assessed as inhibition of cell proliferation at 20 uM incubated for 24 hrs by CCK8 assay; format: functional, cell-based
CAL-62 = experiment: Cytotoxicity against human CAL-62 cells assessed as inhibition of cell proliferation at 20 uM incubated for 24 hrs by CCK8 assay; format: functional, cell-based
RAW264.7 [2] = experiment: Anti-inflammatory activity against mouse RAW264.7 cells at 20 uM pretreated for 30 mins followed by LPS treatment for 24 hrs by Griess assay; format: functional, cell-based; settings: time 24.5 hrs
GBC-SD = experiment: Cytotoxicity against human GBC-SD cells assessed as inhibition of cell proliferation at 20 uM incubated for 24 hrs by CCK8 assay; format: functional, cell-based
TE-1 = experiment: Cytotoxicity against human TE-1 cells assessed as inhibition of cell proliferation at 20 uM incubated for 24 hrs by CCK8 assay; format: functional, cell-based
A549 = experiment: Cytotoxicity against human A549 cells assessed as inhibition of cell proliferation at 20 uM incubated for 24 hrs by CCK8 assay; format: functional, cell-based
MKN-45 = experiment: Cytotoxicity against human MKN-45 cells assessed as inhibition of cell proliferation at 20 uM incubated for 24 hrs by CCK8 assay; format: functional, cell-based
HepG2 = experiment: Cytotoxicity against human HepG2 cells assessed as inhibition of cell proliferation at 20 uM incubated for 24 hrs by CCK8 assay; format: functional, cell-based
HCT-116 = experiment: Cytotoxicity against human HCT-116 cells assessed as inhibition of cell proliferation at 20 uM incubated for 24 hrs by CCK8 assay; format: functional, cell-based
HeLa = experiment: Cytotoxicity against human HeLa cells assessed as inhibition of cell proliferation at 20 uM incubated for 24 hrs by CCK8 assay; format: functional, cell-based
Escherichia coli = experiment: Antibacterial activity against Escherichia coli CGMCC 44102 at 1 mM at 20 uM incubated for 16 hrs by disk diffusion method; format: functional, organism-based
PaTu 8988t = experiment: Cytotoxicity against human PaTu 8988t cells assessed as inhibition of cell proliferation at 20 uM incubated for 24 hrs by CCK8 assay; format: functional, cell-based

SMILES | Activity (K562) | Activity (MCF7) | Activity (786-0) | Activity (A673) | Activity (A-375) | Activity (RAW264.7 [1]) | Activity (L02) | Activity (SF-126) | Activity (Staphylococcus aureus) | Activity 5637 | Activity (Bacillus subtilis) | Activity (HOS) | Activity (DU-145) | Activity (CAL-62) | Activity (RAW264.7 [2]) | Activity (GBC-SD) | Activity (TE-1) | Activity (A549) | Activity (MKN-45) | Activity (HepG2) | also measured
COC(=O)[C@@H](NC(=O)[C@H](Cc1c[nH]c2ccccc12)NC(=O)[C@H](Cc1c[nH]c2ccccc12)NC(=O)[C@@H](NC(=O)N[C@@H](Cc1c[nH]c2cc(Br)ccc12)C(=O)O)[C@@H](C)O)C(C)C ({Trp(6-Br)-CO}-TWWV-OMe) | inactive | inactive | inactive | inactive | inactive | inactive | Non-toxic | inactive | inactive | inactive | inactive | inactive | inactive | inactive | inactive | inactive | inactive | inactive | inactive | inactive | Activity (HCT-116): inactive; Activity (HeLa): inactive; Activity (Escherichia coli): inactive; Activity (PaTu 8988t): inactive
COC(=O)[C@@H](NC(=O)[C@H](Cc1c[nH]c2ccccc12)NC(=O)[C@H](Cc1c[nH]c2ccccc12)NC(=O)[C@@H](NC(=O)N[C@@H](Cc1c[nH]c2ccccc12)C(=O)O)[C@@H](C)O)C(C)C ({Trp-CO}-TWWV-OMe) | inactive | inactive | inactive | inactive | inactive | inactive | Non-toxic | inactive | inactive | inactive | inactive | inactive | inactive | inactive | inactive | inactive | inactive | inactive | inactive | inactive | Activity (HCT-116): inactive; Activity (HeLa): inactive; Activity (Escherichia coli): inactive; Activity (PaTu 8988t): inactive
